The results in this text go back to US20260365653A1, “IRREVERSIBLE MUTEGFR INHIBITORS” (Bayer Aktiengesellschaft, priority 2022, published 2026).

The target of assay [1] is T1, mutEGFR (D770_N771insSVD) (Homo sapiens, UniProt P00533, DUP768-770).
T1 construct: GST-EGFR #3 (SVD between D770 and N771); made in house; host or cells: Sf9 insect cells (baculovirus)
Kind of assay: Exon20-Mutant-EGFR (D770_N771insSVD) kinase assay (TR-FRET). It is filed as biochemical. The following applies: mutEGFR (D770_N771insSVD) kinase assay IC50, Table 2a; D770_N771insSVD; 2 mM ATP. Background: In TR-FRET formats the signal depends on donor and acceptor labels being close together.

In assay [2] the target is T2, mutEGFR (D770_N771insNPG, T790) (Homo sapiens, UniProt P00533, INS770NPG/T790M).
T2 construct: exact insNPG construct not described; in-house EGFR proteins were N-terminal GST fusions from baculovirus/insect cells (borders R669-A1210 given only for WT, insSVD, insASV)
T2 sequence (P00533 with tags, fused parts or gaps INS770NPG/T790M limits assumed): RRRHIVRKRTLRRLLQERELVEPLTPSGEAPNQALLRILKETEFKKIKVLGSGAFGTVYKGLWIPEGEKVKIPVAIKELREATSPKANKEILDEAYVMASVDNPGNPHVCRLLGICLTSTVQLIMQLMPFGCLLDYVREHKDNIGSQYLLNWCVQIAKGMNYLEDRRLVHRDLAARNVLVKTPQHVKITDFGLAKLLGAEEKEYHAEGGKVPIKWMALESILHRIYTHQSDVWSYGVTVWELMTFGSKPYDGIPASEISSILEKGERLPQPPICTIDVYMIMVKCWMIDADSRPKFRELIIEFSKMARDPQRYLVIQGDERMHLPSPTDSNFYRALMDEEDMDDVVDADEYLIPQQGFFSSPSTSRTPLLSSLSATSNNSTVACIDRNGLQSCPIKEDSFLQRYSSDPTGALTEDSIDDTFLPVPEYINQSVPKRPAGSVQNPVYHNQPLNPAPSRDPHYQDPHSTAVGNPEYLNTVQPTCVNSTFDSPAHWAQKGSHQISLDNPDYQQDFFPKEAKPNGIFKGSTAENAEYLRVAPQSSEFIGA
Nature of the assay: mutEGFR (D770_N771insNPG, T790) kinase assay. The following applies: Table 2a, D770_N771insNPG. Format: biochemical. The text has this:
The different EGFR proteins used in the biochemical kinase activity inhibition assays were generated inhouse by expression in insect cells using Baculo Virus system and subsequent purification as described in the following paragraphs.
The cDNAs encoding the various protein sequences from human EGFR human (P00533) were optimized for expression in eukaryotic cells and synthesized by the GeneArt Technology at Life Technologies.

For a further assay, the system named is BA/F3 (insSVD) cells. Nature of the assay: Ba/F3-EGFR-insSVD cell survival assay (Cell Titer-Glo). It is filed as cell-based. The following applies: Mus musculus, BaF3, 48 h, Table 3a, cell survival, Cell Titer-Glo, with 10 ng/ml EGF, without IL-3. A digest of the protocol:
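CellTiter-Glo luminescence read after 48 h compound exposure at 37° C. Cells: IL-3-independent Ba/F3 lines transduced with EGFR-insSVD or EGFR-insSVD T790M, maintained on 10 ng/ml EGF and seeded at 4000 per well.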
Background: ATP-based viability assays read luminescence as a measure of living cells.

T1 sequence (P00533 with tags, fused parts or gaps DUP768-770): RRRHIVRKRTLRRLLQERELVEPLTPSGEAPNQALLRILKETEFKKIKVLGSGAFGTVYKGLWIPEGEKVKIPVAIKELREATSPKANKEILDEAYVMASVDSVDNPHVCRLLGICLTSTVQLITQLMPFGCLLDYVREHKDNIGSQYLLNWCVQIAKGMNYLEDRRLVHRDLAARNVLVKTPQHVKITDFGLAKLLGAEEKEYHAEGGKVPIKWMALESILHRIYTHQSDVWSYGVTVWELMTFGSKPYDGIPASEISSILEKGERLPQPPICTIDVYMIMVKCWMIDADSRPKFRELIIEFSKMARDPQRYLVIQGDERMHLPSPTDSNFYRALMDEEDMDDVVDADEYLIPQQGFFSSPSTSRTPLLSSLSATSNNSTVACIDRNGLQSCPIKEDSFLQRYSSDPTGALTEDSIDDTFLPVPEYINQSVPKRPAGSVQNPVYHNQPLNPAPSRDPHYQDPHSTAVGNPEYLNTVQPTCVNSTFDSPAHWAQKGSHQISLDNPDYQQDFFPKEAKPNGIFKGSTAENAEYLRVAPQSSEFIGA

The term IC50 denotes the concentration that inhibits the measured activity by half. Low readings indicate greater potency, high ones weaker potency. For the compound `Cc1c[nH]c2nccc(-c3c(-c4ccc(F)cc4)nn4c3C(C)N(C(=O)/C=C/CN(C)C)CC4)c12` (single isomer, unassigned; isomer 2) [Example 256, (E)-4-(dimethylamino)-1-(2-(4-fluorophenyl)-4-methyl-3-(3-methyl-1H-pyrrolo[2,3-b]pyridin-4-yl)-6,7-dihydropyrazolo[1,5-a]pyrazin-5(4H)-yl) but-2-en-1-one (isomer 2)], the results for the concentration for half-maximal inhibition (IC50) (in assay [1]; in assay [2]; with BA/F3 (insSVD) cells) were 7490 nM, more than 1630 nM and 158 nM, respectively.
For `O=C(/C=C/CF)N1CCn2nc(-c3ccc(Cl)cc3F)c(-c3ccncc3)c2C1` [Example 73, (2E)-1-[2-(4-chloro-2-fluorophenyl)-3-(pyridin-4-yl)-6,7-dihydropyrazolo[1,5-a]pyrazin-5(4H)-yl]-4-fluorobut-2-en-1-one], in that order: 1.09 nM, 5.1 nM and 61 nM.
In the same order, the values of `C=CC(=O)N1Cc2c(-c3ccncc3)c(-c3ccc4sccc4c3)nn2C(C)C1` (racemic) [Example 280, 1-[(7RS)-2-(1-benzothiophen-5-yl)-7-methyl-3-(pyridin-4-yl)-6,7-dihydropyrazolo[1,5-a]pyrazin-5(4H)-yl]prop-2-en-1-one] are 0.0813 nM, 0.151 nM and 6.82 nM.
For `Cc1ccc(-c2nn3c(c2-c2ccnc4[nH]ccc24)CN(C(=O)/C=C/CN(C)C)CC3)c(F)c1` [Example 99, (2E)-4-(dimethylamino)-1-[2-(2-fluoro-4-methylphenyl)-3-(1H-pyrrolo[2,3-b]pyridin-4-yl)-6,7-dihydropyrazolo[1,5-a]pyrazin-5(4H)-yl]but-2-en-1-one], in that order: 5.72 nM, 57.1 nM and 337 nM.
For `CC(C)(C)OC(=O)NCC#CC(=O)N1CCn2nc(-c3ccc(F)cc3)c(-c3ccncc3)c2C1` [Example 90, tert-butyl {4-[2-(4-fluorophenyl)-3-(pyridin-4-yl)-6,7-dihydropyrazolo[1,5-a]pyrazin-5(4H)-yl]-4-oxobut-2-yn-1-yl}carbamate], the IC50 came out at 2.08 nM in assay [1], 5.34 nM in assay [2] and 166 nM with BA/F3 (insSVD) cells.
For `C=CC(=O)N1CCn2nc(-c3ccc4occc4c3)c(-c3ccncc3)c2C1` [Example 194, 1-[2-(1-benzofuran-5-yl)-3-(pyridin-4-yl)-6,7-dihydropyrazolo[1,5-a]pyrazin-5(4H)-yl]prop-2-en-1-one], in that order: 0.144 nM, 0.399 nM and 15.3 nM.
In the same order, the values of `CN1CCN(C/C=C/C(=O)N2CCn3nc(-c4ccc(Cl)cc4)c(-c4ccncc4)c3C2)CC1` [Example 164, (2E)-1-[2-(4-chlorophenyl)-3-(pyridin-4-yl)-6,7-dihydropyrazolo[1,5-a]pyrazin-5(4H)-yl]-4-(4-methylpiperazin-1-yl) but-2-en-1-one] are 2.99 nM, 9.37 nM and 155 nM.
For `Cc1c[nH]c2nccc(-c3c(-c4ccc(C(F)(F)F)cc4)nn4c3CN(C(=O)/C=C/CN(C)C)[C@@H](C)C4)c12` [Example 254, (2E)-4-(dimethylamino)-1-[(6S)-6-methyl-3-(3-methyl-1H-pyrrolo[2,3-b]pyridin-4-yl)-2-[4-(trifluoromethyl)phenyl]-6,7-dihydropyrazolo[1,5-a]pyrazin-5(4H)-yl]but-2-en-1-one], in that order: 36 nM, 437 nM and 39.9 nM.
For `C=CC(=O)N1CCn2nc(-c3ccc4cc[nH]c4c3)c(-c3ccncc3)c2C1C` (racemic) [Example 243, 1-[(RS)-2-(1H-indol-6-yl)-4-methyl-3-(pyridin-4-yl)-6,7-dihydropyrazolo[1,5-a]pyrazin-5(4H)-yl]prop-2-en-1-one], the IC50 is 0.395 nM in assay [1], 0.656 nM in assay [2] and 97.8 nM with BA/F3 (insSVD) cells.
For `CN(C)C/C=C/C(=O)N1Cc2c(-c3ccncc3)c(-c3ccc(F)cc3)nn2C(CO)C1` (racemic) [Example 201, rac-(R,E)-4-(dimethylamino)-1-(2-(4-fluorophenyl)-7-(hydroxymethyl)-3-(pyridin-4-yl)-6,7-dihydropyrazolo[1,5-a]pyrazin-5(4H)-yl) but-2-en-1-one], in that order: 1.67 nM, 3.42 nM and 423 nM.
In the same order, the values of `C=CC(=O)N1Cc2c(-c3ccncc3)c(-c3ccc4cc(Cl)sc4c3)nn2CC1C` (racemic) [Example 233, 1-[(RS)-2-(2-chloro-1-benzothiophen-6-yl)-6-methyl-3-(pyridin-4-yl)-6,7-dihydropyrazolo[1,5-a]pyrazin-5(4H)-yl]prop-2-en-1-one] are 0.258 nM, 0.467 nM and 48.7 nM.
For `C=CC(=O)N1CCn2nc(-c3ccc(Cl)cc3OC)c(-c3ccncc3)c2C1` [Example 116, 1-[2-(4-chloro-2-methoxyphenyl)-3-(pyridin-4-yl)-6,7-dihydropyrazolo[1,5-a]pyrazin-5(4H)-yl]prop-2-en-1-one], in that order: 8.38 nM, 11.5 nM and 635 nM.
`COCCN(C)C/C=C/C(=O)N1CCn2nc(-c3ccc(Cl)cc3)c(-c3ccncc3)c2C1` [Example 169, (2E)-1-[2-(4-chlorophenyl)-3-(pyridin-4-yl)-6,7-dihydropyrazolo[1,5-a]pyrazin-5(4H)-yl]-4-[(2-methoxyethyl)(methyl)amino]but-2-en-1-one]: the IC50 in assay [1] is 0.18 nM; in assay [2] it was 0.385 nM; in the assay with BA/F3 (insSVD) cells, 66.9 nM.
In the same order, the values of `C=CC(=O)N1CCn2nc(-c3cccc(C#N)c3)c(-c3ccncc3)c2C1` [Example 141, 3-[5-(prop-2-enoyl)-3-(pyridin-4-yl)-4,5,6,7-tetrahydropyrazolo[1,5-a]pyrazin-2-yl]benzonitrile] are 32.4 nM, 19.7 nM and 177 nM.
With `C=CC(=O)N1CCn2nc(-c3ccc(C(F)(F)F)cc3)c(-c3ccnc4[nH]cc(C)c34)c2C1` [Example 48, 1-[3-(3-methyl-1H-pyrrolo[2,3-b]pyridin-4-yl)-2-[4-(trifluoromethyl)phenyl]-6,7-dihydropyrazolo[1,5-a]pyrazin-5(4H)-yl]prop-2-en-1-one], the IC50 worked out at 242 nM in assay [1], 1270 nM in assay [2] and 90.5 nM with BA/F3 (insSVD) cells.
In the same order, the values of `C=CC(=O)N1CCn2nc(-c3ccc(OC)c(Cl)c3)c(-c3ccncc3)c2C1` [Example 38, 1-[2-(3-chloro-4-methoxyphenyl)-3-(pyridin-4-yl)-6,7-dihydropyrazolo[1,5-a]pyrazin-5(4H)-yl]prop-2-en-1-one] are 0.554 nM, 0.489 nM and 32.1 nM.
Turning to `CN(C)C/C=C/C(=O)N1CCn2nc(Nc3ccccc3)c(-c3ccncc3)c2C1` [Example 273, (2E)-1-[2-anilino-3-(pyridin-4-yl)-6,7-dihydropyrazolo[1,5-a]pyrazin-5(4H)-yl]-4-(dimethylamino)but-2-en-1-one], the values for the IC50 (in assay [1]; in assay [2]; with BA/F3 (insSVD) cells) were 3.94 nM, 21.6 nM and 531 nM, respectively.
In the same order, the values of `C=C(F)C(=O)N1Cc2c(-c3ccncc3)c(-c3ccc(Cl)cc3F)nn2CC1C` (racemic) [Example 237, 1-[(RS)-2-(4-chloro-2-fluorophenyl)-6-methyl-3-(pyridin-4-yl)-6,7-dihydropyrazolo[1,5-a]pyrazin-5(4H)-yl]-2-fluoroprop-2-en-1-one] are 2.94 nM, 9.96 nM and 126 nM.
Regarding `C=CC(=O)N1CCn2nc(-c3ccc(Cl)cc3CO)c(-c3ccncc3)c2C1` [Example 191, 1-{2-[4-chloro-2-(hydroxymethyl)phenyl]-3-(pyridin-4-yl)-6,7-dihydropyrazolo[1,5-a]pyrazin-5(4H)-yl}prop-2-en-1-one], the results for the IC50 (in assay [1]; in assay [2]; with BA/F3 (insSVD) cells) were 0.626 nM, 1.26 nM and 32.9 nM, respectively.
`C=CC(=O)N1Cc2c(-c3ccncc3)c(-c3ccc(F)cc3)nn2C(C(=O)NC)C1` (single isomer, unassigned; isomer 1) [Example 205, 5-acryloyl-2-(4-fluorophenyl)-N-methyl-3-(pyridin-4-yl)-4,5,6,7-tetrahydropyrazolo[1,5-a]pyrazine-7-carboxamide (isomer 1)]: the IC50 in assay [1] was 137 nM; in assay [2] it was 144 nM; in the assay with BA/F3 (insSVD) cells, 824 nM.
In the same order, the values of `Cc1cc(-c2nn3c(c2-c2ccncc2)CN(C(=O)/C=C/CN(C)C)C(C)(C)C3)ccc1Cl` [Example 218, (2E)-1-[2-(4-chloro-3-methylphenyl)-6,6-dimethyl-3-(pyridin-4-yl)-6,7-dihydropyrazolo[1,5-a]pyrazin-5(4H)-yl]-4-(dimethylamino)but-2-en-1-one] are 6.99 nM, 16.4 nM and 367 nM.
